Assay results: patent US20050288347A1, “Certain triazole-based compounds, compositions, and uses thereof” (priority 2004, published 2005)
Entries after “also recorded” stand apart in the source; their conditions may differ.

Tested on: protein kinase
Experiment: HTS ATP-utilizing enzyme assay, off-chip mobility-shift format (Caliper HTS 250)
Format: biochemical, human
Settings: test compound 10 μM; active = activity greater than three-sigma from the mean of the predominately inactive population for that enzyme
How it was run: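 Kinase reactions ran 2.5 h at 20 to 22 °C with test compound at 10 μM, in a HEPES pH 7.5 master buffer containing Triton X-100 and BSA. Peptide substrate and phosphorylated product separated by mobility shift; inhibition normalized to DMSO (0%) and EDTA (100%) controls, with three-sigma thresholds for hits.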

Compound | protein kinase against which the compound exhibits inhibitory activity (Table 3)
C=CCSc1nnc(Cn2cnc3ccccc32)n1C | HCK
CSCCc1nnc(SCC(O)C(F)(F)F)[nH]1 (stereo not shown) | GSK3-α
OC(CSc1nnc(-c2cccc(C(F)(F)F)c2)[nH]1)C(F)(F)F (stereo not shown) | AURORA-A; also recorded: FLT-3; also recorded: GSK3-β
O=C1c2ccccc2C(=O)N1CCSc1nnc(-c2cccc(C(F)(F)F)c2)[nH]1 | GSK3-β and PKA and GSK3-α
COc1ccccc1-n1c(SCC(=O)N2CCCC2)nnc1-c1ccccc1O | PRAK
CCCN(CCC)C(=O)CSc1nnc(-c2ccccc2O)n1-c1ccccc1OC | KIT and AURORA-A and PKA
COc1ccc(-n2c(SCc3nnc(-c4ccccc4)o3)nnc2-c2ccncc2)cc1 | GSK3-α
COc1ccc(CCn2c(CCC3CCCC3)nnc2SCC=C(C)C)cc1OC | GSK3-β; also recorded: GSK3-α
CCOCCSc1nnc(-c2ccc([N+](=O)[O-])cc2)[nH]1 | FLT-3; also recorded: AURORA-A; also recorded: GSK3-α
CCOCCSc1nnc(-c2cccc(C)c2)[nH]1 | AURORA-A; also recorded: FLT-3; also recorded: GSK3-β
COc1ccccc1-n1c(SCCC(=O)O)nnc1-c1cccnc1 | AURORA-A
O=C(O)CCSc1nnc(-c2ccc(O)cc2)n1-c1cccc(Cl)c1 | GSK3-β; also recorded: GSK3-α
CCn1c(COc2ccc(OC)cc2)nnc1SCc1ccc(Cl)cc1 | CDK2-cyclinE
CCc1ccc(OCc2nnc(SCCC(=O)O)n2CC)cc1 | MSK1
COCCCn1c(SCc2ccccc2Cl)nnc1-c1ccc(C(C)(C)C)cc1 | CDK1
OC(CSc1nnc(-c2ccc(Cl)c(Cl)c2)[nH]1)C(F)(F)F (stereo not shown) | AURORA-A; also recorded: FLT-3; also recorded: GSK3-β
OCC(O)CSc1nnc(-c2ccc(OC(F)(F)F)cc2)[nH]1 (stereo not shown) | AURORA-A; also recorded: FLT-3; also recorded: DYRK2
COc1ccc(-n2c(COc3ccccc3OC)nnc2SCCC(=O)O)cc1 | CDK1
CCn1c(COc2ccc(Br)cc2)nnc1SCCC(=O)O | AURORA-A
Cc1cc(OCc2nnc(SCCC(=O)O)n2C)ccc1Cl | AURORA-A
Cc1cc(C)nc(SCc2nnc(SCCC(=O)O)n2-c2ccccc2)n1 | CHEK2

Compound | protein kinase against which the compound exhibits inhibitory activity (Table 3)
CCCCSc1nnc(-c2cccnc2)[nH]1 | AURORA-A; also recorded: FLT-3; also recorded: c-TAK1
COc1ccccc1-n1c(SCCC(=O)O)nnc1C1CCCCC1 | GSK3-α
CCn1c(COc2ccc(Cl)c(C)c2)nnc1SC(C)C | AKT1
CC(C)=CCSc1nnc(CCC2CCCC2)n1CCCN1CCOCC1 | GSK3-α
Clc1ccc(CSc2nnc(-c3ccncc3)n2Cc2ccco2)c(Cl)c1 | MSK2 and MSK1 and AKT3
Clc1ccc(CSc2nnc(-c3ccncc3)n2Cc2ccco2)cc1 | MSK1 and MSK2 and AKT3
CCc1nnc(SCC=C(C)C)n1Cc1ccc2c(c1)OCO2 | GSK3-β; also recorded: GSK3-α
COc1ccc(-c2nnc(SCC(=O)NNC(=O)c3ccc(Br)cc3)n2C)cc1 | CHEK2; also recorded: GSK3-β; also recorded: GSK3-α
COc1ccc(-n2c(CNc3ccc(F)cc3)nnc2SC)cc1 | AKT1
O=C(NCCSc1nnc(-c2cccc(C(F)(F)F)c2)[nH]1)c1ccccc1 | GSK3-β; also recorded: GSK3-α; also recorded: CHEK2
CC(C)Sc1nnc(-c2ccc(NS(C)(=O)=O)cc2)n1C | CDK2-cyclinA
CN(C)CCCSc1nnc(C2CCCC2)[nH]1 | c-TAK1
OCC(O)CSc1nnc(CCc2ccccc2)[nH]1 (stereo not shown) | GSK3-α
Cn1c(SCC(=O)NN(Br)C(=O)c2ccccc2)nnc1C1CCCCC1 | SGK1
CCN(CC)S(=O)(=O)c1ccc(-c2nnc(SCc3nnc(-c4ccccc4)o3)n2CC)cc1 | GSK3-α
CN(C)CCCSc1nnc(-c2cccc(C(F)(F)F)c2)[nH]1 | CHEK2; also recorded: c-TAK1; also recorded: GSK3-β
CN(C)CCCSc1nnc(-c2ccc(OC(F)(F)F)cc2)[nH]1 | c-TAK1; also recorded: AURORA-A; also recorded: CHEK2
CCn1c(SCC(=O)NNC(=O)C2CCCCC2)nnc1-c1ccncc1 | AURORA-A
CCOC(=O)CCCSc1nnc(-c2ccc3[nH]c(C)c(C)c3c2)n1CC | FLT-3
COc1cc2c(cc1NC(=O)CSc1nncn1C)oc1ccccc12 | CHEK2 and INSR and AURORA-A
O=C(CSc1nnc[nH]1)N1c2ccccc2CCc2ccccc21 | LCK

Results, then the compound that gave them:

protein kinase against which the compound exhibits inhibitory activity (Table 3) | Compound
AURORA-A | COc1ccccc1-n1c(SCC(=O)Nc2ccccc2)nnc1-c1ccccc1O
AURORA-A | CNC(=O)CSc1nnc(-c2ccccc2O)n1-c1ccccc1OC
FYN | CCn1c(SCC(=O)NNC(=O)Cc2ccccc2)nnc1-c1ccc(Cl)cc1
AKT1 | O=c1[nH]c(CSc2nnc(-c3ccccc3O)n2CCc2ccccc2)nc2ccccc12
MAPKALPK-2 and AKT1 | COc1ccc(-n2c(CNc3ccccc3Cl)nnc2SCc2ccc(Cl)cc2)cc1
FYN and FLT-3 and CSK | Cn1c(SCC(=O)NNC(=O)c2ccccc2O)nnc1-c1ccccc1
CHEK2 | COc1ccccc1-c1nnc(SCCC(=O)O)n1-c1cccc(Cl)c1
CDK2-cyclinE | CCn1c(COc2ccccc2OC)nnc1SCc1ccc(Cl)cc1
AURORA-A | CCn1c(COc2cccc3ccccc23)nnc1SCCC(=O)O
CHEK2; also recorded: AURORA-A | COc1ccc(-n2c(SCCC(=O)O)nnc2-c2ccc(NC(=O)c3ccccc3)cc2)cc1
c-TAK1 | CC(C)=CCSc1nnc(Cc2ccccc2)n1Cc1ccc(Cl)c(Cl)c1
AURORA-A | COc1ccccc1-n1c(SCC(=O)Nc2cc(NC(=O)c3ccco3)ccc2C)nnc1-c1ccccc1O
AURORA-A | COc1ccccc1-n1c(SCC(=O)Nc2cccc(NC(=O)c3ccco3)c2)nnc1-c1ccccc1O
KIT and AURORA-A | COc1ccccc1-n1c(SCC(=O)Nc2ccc(Cl)cc2)nnc1-c1ccccc1O
PDGFRR-α and FLT-3 and FYN | COc1ccc(NCc2nnc(SCc3ccccc3)n2-c2ccc(OC)cc2)cc1
FLT-3; also recorded: PDGFRR-α | COc1ccc(-n2c(CNc3ccc(C)cc3)nnc2SCc2ccccc2)cc1

protein kinase against which the compound exhibits inhibitory activity (Table 3) | Compound
INSR and KIT and SYK | CCCCNC(=O)CSc1nnc(-c2ccccc2O)n1-c1ccccc1OC
AURORA-A | COCCCn1c(SCC(=O)NN(O)C(=O)c2ccccc2)nnc1-c1ccncc1
FYN | O=C(CSc1nnc(-c2ccncc2)n1-c1ccc(F)cc1)NN(O)C(=O)c1ccccc1
PDGFRR-α; also recorded: AURORA-A | O=C(CSc1nnc(-c2cccnc2)n1Cc1ccccc1)NNC(=O)c1ccc(Br)cc1
FYN and CSK | O=C(CSc1nnc(-c2ccccc2)n1Cc1ccccc1)NNC(=O)c1ccccc1O
DAPK-1 | Cc1ccc(C(=O)NNC(=O)CSc2nnc(Cc3ccccc3)n2Cc2ccccc2)cc1
FYN and FLT-3 | COc1ccc(-c2nnc(SCC(=O)NNC(=O)c3ccccc3O)n2-c2ccccc2)cc1OC
AURORA-A; also recorded: DYRK2 | CCn1c(CNc2ccccc2Cl)nnc1SCC(=O)NNC(=O)c1ccc(OC)cc1
LCK | Cc1ccc(C(=O)NNC(=O)CSc2nnc(COc3ccc(C#N)cc3)n2-c2ccccc2)cc1
PDGFRR-α and FYN and FLT-3 | COc1ccc(NCc2nnc(SCC(=O)NNC(=O)c3ccc(C)cc3)n2C)cc1
FYN | COc1ccc(-n2c(SCC(=O)NNC(C)=O)nnc2-c2ccncc2)cc1
AURORA-A | COc1ccccc1-n1c(SCCC(=O)OCc2ccccc2)nnc1C1CCCCC1
MAPKAPK-2 | Cn1c(Cn2nnc3ccccc32)nnc1SCC(=O)C1c2ccccc2CCc2ccccc21
DAPK1 | CCN(CC)S(=O)(=O)c1ccc(-c2nnc(SCC(=O)N3c4ccccc4CCc4ccccc43)n2CC)cc1
MSK2 | Cc1cccc(OCc2nnc(SCC(=O)N3c4ccccc4CCc4ccccc43)n2C)c1C
